From US20250051375A1, “ANTI-HIV COMPOUNDS” (Gilead Sciences, Inc., priority 2023, published 2025)
Values after ≈ are worked out from the molar mass of the structure shown.

Assays:
Solubility in FaSSIF = details: 23 °C, pH 6.5, fassif, thermodynamic from solid
How it was run: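 Concentration measured by HPLC-UV after solid compound was dosed at 5 mg/mL into pH 6.5 fasted-state simulated intestinal fluid containing taurocholate and lecithin (4:1 molar) and vortexed.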

[1] = Intestinal S9 Assay (human GI S9); type: in vitro ADME; details: 1.0 mg/mL S9 protein; for half-life at 2 μM: human, TRIS pH 7.4, read-out: Human GI S9 T½
How it was run: (§1)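 Pooled dog or human intestinal S9 at 1.0 mg/mL protein in TRIS buffer pH 7.4 with ZnCl2 and MgCl2; compound at 2 μM, sampled 0–120 min and quenched. Remaining parent by LC-MS peak area ratio; half-life from first-order exponential decline fit.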

PBS Stability Assay = type: physicochemical; details: buffer, pH 7.4, 2 μM, phosphate buffered saline pH 7.4; read-out: PBS T½
How it was run: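 Test compound at 2 μM final was incubated in PBS, pH 7.4, and sampled at 0, 10, 20, 30, 60 and 120 min into acetonitrile/1% formic acid quench with labetalol internal standard. Remaining compound was quantified by LC-MS peak-area ratio, and half-life came from a first-order exponential fit.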

[2] = Intestinal S9 Assay (dog GI S9); type: in vitro ADME; details: 1.0 mg/mL S9 protein; for half-life at 2 μM: dog, TRIS pH 7.4, read-out: Dog GI S9 T½
How it was run: as §1

HIV-1 IIIB strain = test: MT-4 HIV Wild Type Virus Infection Assay (IIIB Virus); type: cell-based; details: Human immunodeficiency virus 1, IIIB, MT4, 120 h, MT-4 cells acutely infected with HIV-1 IIIB, 5 day incubation, Cell-titer glo
How it was run: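 MT-4 cells at 2×10^6 cells/ml in RPMI/10% FBS were acutely infected with HIV-1 IIIB for 1 h at 37° C, diluted 25× and added to serially diluted compounds. After 5 days at 37° C, viability read by CellTiter-Glo luminescence; EC50 from dose-response curves.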

[3] = target: bovine intestinal alkaline phosphatase (Bos taurus (Bovine), UniProt P19111); test: BiALP: conversion by bovine intestinal alkaline phosphatase; type: in vitro ADME; details: 2 μM substrate, 100 ng/mL iALP, Tris pH 7.8, 37° C., 60 minutes
How it was run: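 Compounds at 2 μM final were incubated 60 min at 37° C in 0.1 M Tris-HCl pH 7.8 with 1 mM MgCl2 and 1 mM ZnCl2, with or without 100 ng/mL iALP (0.01 units/mL). Samples were quenched with acetonitrile/formic acid containing labetalol. Conversion was quantified by LC-MS peak area ratios against a 2 μM product standard.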

Sequence of bovine intestinal alkaline phosphatase (P19111 20-506): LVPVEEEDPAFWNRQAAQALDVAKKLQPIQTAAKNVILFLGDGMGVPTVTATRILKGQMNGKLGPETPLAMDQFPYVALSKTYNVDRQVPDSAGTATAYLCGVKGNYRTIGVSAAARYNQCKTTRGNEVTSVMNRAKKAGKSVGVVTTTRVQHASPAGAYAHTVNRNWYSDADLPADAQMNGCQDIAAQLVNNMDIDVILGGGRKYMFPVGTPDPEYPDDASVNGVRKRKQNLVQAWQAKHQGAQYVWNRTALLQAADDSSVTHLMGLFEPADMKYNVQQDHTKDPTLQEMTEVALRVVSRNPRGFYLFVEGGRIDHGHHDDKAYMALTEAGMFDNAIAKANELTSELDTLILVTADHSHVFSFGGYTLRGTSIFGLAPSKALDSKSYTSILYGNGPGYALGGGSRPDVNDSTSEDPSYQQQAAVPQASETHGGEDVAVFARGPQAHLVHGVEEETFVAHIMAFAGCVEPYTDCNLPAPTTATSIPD

COC(=O)N[C@H](C(=O)N[C@@H](Cc1ccc(C#Cc2cnc(N3CC4CCC(C3)N4C3COC3)nc2)cc1)[C@H](CN(Cc1c(F)cc(-c2ccn(C(F)F)n2)cc1F)NC(=O)[C@@H](NC(=O)OC)C(C)(C)C(F)(F)F)OC(=O)CC(C)(C)c1c(CC(=O)NC23CC(C(=O)O)(C2)C3)cc(C)cc1OP(=O)(O)O)C(C)(C)C(F)(F)F [Example 38]
solubility at 2 h (Solubility in FaSSIF): 3500 µg/mL (≈ 2200 µM)
half-life at 2 μM [1]: 7.82 h
half-life at 2 μM (PBS Stability Assay): 5.16 h
half-life at 2 μM [2]: 6.52 h
EC50 (HIV-1 IIIB strain): 305 nM
[Compound] [3]: 1920.9 nM

COC(=O)N[C@H](C(=O)N[C@@H](Cc1ccc(C#Cc2cnc(N3CC4CCC(C3)N4C3COC3)nc2)cc1)[C@H](CN(Cc1c(F)cc(-c2ccn(C(F)F)n2)cc1F)NC(=O)[C@@H](NC(=O)OC)C(C)(C)C(F)(F)F)OC(=O)CC(C)(C)c1c(CC(=O)N[C@@H](Cc2ccc(C(=O)O)cc2)C(=O)O)cc(C)cc1OP(=O)(O)O)C(C)(C)C(F)(F)F [Example 45]
solubility at 2 h (Solubility in FaSSIF): 4300 µg/mL (≈ 2570 µM)
half-life at 2 μM [1]: 6.23 h
half-life at 2 μM (PBS Stability Assay): 4.74 h
half-life at 2 μM [2]: 0.993 h
EC50 (HIV-1 IIIB strain): 209 nM
[Compound] [3]: 1787.4 nM

COC(=O)N[C@H](C(=O)N[C@@H](Cc1ccc(C#Cc2cnc(N3CC4CCC(C3)N4C3COC3)nc2)cc1)[C@H](CN(Cc1c(F)cc(-c2ccn(C(F)F)n2)cc1F)NC(=O)[C@@H](NC(=O)OC)C(C)(C)C(F)(F)F)OC(=O)CC(C)(C)c1c(CC(=O)NCc2ccc(C(=O)O)cc2)cc(C)cc1OP(=O)(O)O)C(C)(C)C(F)(F)F [Example 49]
solubility at 2 h (Solubility in FaSSIF): 1220 µg/mL (≈ 754 µM)
half-life at 2 μM [1]: 5.5 h
half-life at 2 μM (PBS Stability Assay): 5.66 h
half-life at 2 μM [2]: 2.59 h
EC50 (HIV-1 IIIB strain): 224 nM
[Compound] [3]: 2175 nM

COC(=O)N[C@H](C(=O)N[C@@H](Cc1ccc(C#Cc2cnc(N3CC4CCC(C3)N4C3COC3)nc2)cc1)[C@H](CN(Cc1c(F)cc(-c2ccn(C(F)F)n2)cc1F)NC(=O)[C@@H](NC(=O)OC)C(C)(C)C(F)(F)F)OC(=O)CC(C)(C)c1c(CC(=O)NCc2ccc(C#N)cc2)cc(C)cc1OP(=O)(O)O)C(C)(C)C(F)(F)F [Example 51, (5S,10S,11S,14S)-8-(4-(1-(difluoromethyl)-1H-pyrazol-3-yl)-2,6-difluorobenzyl)-11-(4-((2-(8-(oxetan-3-yl)-3,8-diazabicyclo[3.2.1]octan-3-yl)pyrimidin-5-yl)ethynyl)benzyl)-3,6,13,16-tetraoxo-5,14-bis(1,1,1-trifluoro-2-methylpropan-2-yl)-2,17-dioxa-4,7,8,12,15-pentaazaoctadecan-10-yl 3-(2-(2-((4-cyanobenzyl)amino)-2-oxoethyl)-4-methyl-6-(phosphonooxy)phenyl)-3-methylbutanoate]
solubility at 2 h (Solubility in FaSSIF): < 1000 µg/mL
half-life at 2 μM [1]: 7.98 h
half-life at 2 μM (PBS Stability Assay): 6.71 h
half-life at 2 μM [2]: 8.29 h
EC50 (HIV-1 IIIB strain): 636 nM
[Compound] [3]: 2331.5 nM

COC(=O)N[C@H](C(=O)N[C@@H](Cc1ccc(C#Cc2cnc(N3CC4CCC(C3)N4C3COC3)nc2)cc1)[C@H](CN(Cc1c(F)cc(-c2ccn(C(F)F)n2)cc1F)NC(=O)[C@@H](NC(=O)OC)C(C)(C)C(F)(F)F)OC(=O)CC(C)(C)c1c(CC(=O)Nc2ccc(/C=C/C(=O)O)cc2)cc(C)cc1OP(=O)(O)O)C(C)(C)C(F)(F)F [Example 52]
solubility at 2 h (Solubility in FaSSIF): < 1000 µg/mL
half-life at 2 μM [1]: 5.07 h
half-life at 2 μM (PBS Stability Assay): 5.92 h
half-life at 2 μM [2]: 2.59 h
EC50 (HIV-1 IIIB strain): 67.2 nM
[Compound] [3]: 2131.6 nM

COC(=O)N[C@H](C(=O)N[C@@H](Cc1ccc(C#Cc2cnc(N3CC4CCC(C3)N4C3COC3)nc2)cc1)[C@H](CN(Cc1c(F)cc(-c2ccn(C(F)F)n2)cc1F)NC(=O)[C@@H](NC(=O)OC)C(C)(C)C(F)(F)F)OC(=O)CC(C)(C)c1c(CC(=O)NCc2cccc(C(=O)O)c2)cc(C)cc1OP(=O)(O)O)C(C)(C)C(F)(F)F [Example 53]
solubility at 2 h (Solubility in FaSSIF): < 1000 µg/mL
half-life at 2 μM [1]: 3.4 h
half-life at 2 μM (PBS Stability Assay): 9.76 h
half-life at 2 μM [2]: 2.41 h
EC50 (HIV-1 IIIB strain): 113 nM
[Compound] [3]: 2028.9 nM

COC(=O)N[C@H](C(=O)N[C@@H](Cc1ccc(C#Cc2cnc(N3CC4CCC(C3)N4C3COC3)nc2)cc1)[C@H](CN(Cc1c(F)cc(-c2ccn(C(F)F)n2)cc1F)NC(=O)[C@@H](NC(=O)OC)C(C)(C)C(F)(F)F)OC(=O)CC(C)(C)c1c(CC(=O)N[C@@H](CCC(=O)O)C(=O)O)cc(C)cc1OP(=O)(O)O)C(C)(C)C(F)(F)F [Example 66]
solubility at 2 h (Solubility in FaSSIF): 3890 µg/mL (≈ 2410 µM)
Human GI S9 [Intermediate A] ([1]; 2 μM, TRIS pH 7.4): 367.6 nM
Human GI S9 [Intermediate A] % ([1]; 2 μM, TRIS pH 7.4): 26%
half-life at 2 μM [1]: 3.19 h
half-life at 2 μM (PBS Stability Assay): 4.86 h
Dog GI S9 [Intermediate A] ([2]; 2 μM, TRIS pH 7.4): 965.9 nM
Dog GI S9 [Intermediate A] % ([2]; 2 μM, TRIS pH 7.4): 68.6%
half-life at 2 μM [2]: 0.912 h
EC50 (HIV-1 IIIB strain): 164 nM
[Compound] [3]: 1908 nM
biALP Intermediate A or [Amprenavir] (% of total) [3]: 9.4 % of total
[Intermediate A] or [Amprenavir] ([3]; parent formed): 197.1 nM

COC(=O)N[C@H](C(=O)N[C@@H](Cc1ccc(C#Cc2cnc(N3CC4CCC(C3)N4C3COC3)nc2)cc1)[C@H](CN(Cc1c(F)cc(-c2ccn(C(F)F)n2)cc1F)NC(=O)[C@@H](NC(=O)OC)C(C)(C)C(F)(F)F)OC(=O)CC(C)(C)c1c(CC(=O)NCC(=O)O)cc(C)cc1OP(=O)(O)O)C(C)(C)C(F)(F)F [Example 74]
solubility at 2 h (Solubility in FaSSIF): 3340 µg/mL (≈ 2160 µM)
half-life at 2 μM [1]: 3.93 h
half-life at 2 μM (PBS Stability Assay): 11.5 h
half-life at 2 μM [2]: 1.03 h
EC50 (HIV-1 IIIB strain): 194 nM
[Compound] [3]: 2044.2 nM

COC(=O)N[C@H](C(=O)N[C@@H](Cc1ccc(C#Cc2cnc(N3CC4CCC(C3)N4C3COC3)nc2)cc1)[C@H](CN(Cc1c(F)cc(-c2ccn(C(F)F)n2)cc1F)NC(=O)[C@@H](NC(=O)OC)C(C)(C)C(F)(F)F)OC(=O)CC(C)(C)c1c(CC(=O)N2CC[C@H](C(=O)O)C2)cc(C)cc1OP(=O)(O)O)C(C)(C)C(F)(F)F [Example 76]
solubility at 2 h (Solubility in FaSSIF): 2230 µg/mL (≈ 1410 µM)
half-life at 2 μM [1]: 6.16 h
half-life at 2 μM (PBS Stability Assay): 4.89 h
half-life at 2 μM [2]: 4.41 h
EC50 (HIV-1 IIIB strain): 333 nM
[Compound] [3]: 1777 nM

COC(=O)N[C@H](C(=O)N[C@@H](Cc1ccc(C#Cc2cnc(N3CC4CCC(C3)N4C3COC3)nc2)cc1)[C@H](CN(Cc1c(F)cc(-c2ccn(C(F)F)n2)cc1F)NC(=O)[C@@H](NC(=O)OC)C(C)(C)C(F)(F)F)OC(=O)CC(C)(C)c1c(CC(=O)NCP(=O)(O)O)cc(C)cc1OP(=O)(O)O)C(C)(C)C(F)(F)F [Example 104]
solubility at 2 h (Solubility in FaSSIF): 2730 µg/mL (≈ 1730 µM)
half-life at 2 μM [1]: 2.1 h
half-life at 2 μM (PBS Stability Assay): 4.75 h
half-life at 2 μM [2]: 0.15 h
EC50 (HIV-1 IIIB strain): 17.6 nM
[Compound] [3]: 1622.8 nM

COC(=O)N[C@H](C(=O)N[C@@H](Cc1ccc(C#Cc2cnc(N3CC4CCC(C3)N4C3COC3)nc2)cc1)[C@H](CN(Cc1c(F)cc(-c2ccn(C(F)F)n2)cc1F)NC(=O)[C@@H](NC(=O)OC)C(C)(C)C(F)(F)F)OC(=O)CC(C)(C)c1c(CC(=O)Nc2ccc(OC)c(S(=O)(=O)O)c2)cc(C)cc1OP(=O)(O)O)C(C)(C)C(F)(F)F [Example 107]
solubility at 2 h (Solubility in FaSSIF): 3440 µg/mL (≈ 2060 µM)
half-life at 2 μM [1]: 4.11 h
half-life at 2 μM (PBS Stability Assay): 6.36 h
half-life at 2 μM [2]: 2.21 h
EC50 (HIV-1 IIIB strain): 317 nM
[Compound] [3]: 1468.1 nM

COC(=O)N[C@H](C(=O)N[C@@H](Cc1ccc(C#Cc2cnc(N3CC4CCC(C3)N4C3COC3)nc2)cc1)[C@H](CN(Cc1c(F)cc(-c2ccn(C(F)F)n2)cc1F)NC(=O)[C@@H](NC(=O)OC)C(C)(C)C(F)(F)F)OC(=O)CC(C)(C)c1c(CC(=O)N2CC[C@@H](C(=O)O)C2)cc(C)cc1OP(=O)(O)O)C(C)(C)C(F)(F)F [Example 112]
solubility at 2 h (Solubility in FaSSIF): 3790 µg/mL (≈ 2400 µM)
half-life at 2 μM [1]: 9.55 h
half-life at 2 μM (PBS Stability Assay): 6.53 h
half-life at 2 μM [2]: 6.05 h
EC50 (HIV-1 IIIB strain): 224 nM
[Compound] [3]: 1708.7 nM
